These results are taken from patent publication US6936726B2, “Flavanol and cysteamine conjugates” (Consejo Superior de Investigaciones Cientificas, priority 2000, dated 2005).

This test is described as follows: DPPH (1,1-diphenyl-2-picrylhydracil) antioxidant/antiradical power assay. Particulars: initial DPPH• around 60 μM; absorbance at 517 nm; calculated from the curves of FIG. 3. On the procedure: FIG. 3. Antioxidant efficacy of phenolic compounds in the DPPH assay. The absorbance (A) at 517 nm is a measure of the amount of free radical remaining in solution. (1−A/A0)×100 represents the percentage of DPPH that has reacted with the antioxidant. The amount of antioxidant expressed as micromoles per micromole of initial DPPH• to correct the possible day to day variation in the amount of initial DPPH• The initial concentration of DPPH• is calculated from the absorbance (A) and a calibration line. Each point represents the mean of three determinations.
The new molecules are potent antioxidants with an excellent capacity to capture free radicals. The conjugates are more efficient than Trolox (water-soluble analogue of Vitamin E) in the DPPH assay (1,1-diphenyl-2-picrylhydracil) [Brand-Williams, W., Cuvelier, M. E., Berset, C., Lebensm.-Wiss. u.-Technol., 28, 25-30 (1995)]. The conjugates are also more efficient than the corresponding non-derived species.
The new pure products are strong antioxidants/capturers of free radicals. FIG. 3 presents the results of the DPPH test (1,1-diphenyl-2-pycrylhydracil). The values of EC50 (effective concentration 50) are calculated from the curves. EC50 is the amount of antioxidant required to reduce the initial concentration to half (around 60 μM) of DPPH•. This amount is expressed as micromoles antioxidant/micromoles initial DPPH•. The EC50 values for compounds relevant to the present invention are: Trolox (water-soluble analogue of Vitamin E), 0.26; (−)-epicatechine, 0.19, 4ξ-(2-aminoethylthio)epicatechine I, 0.11; 4ξ-(2-aminoethylthio)epicatechinegalate III, 0.11.
Consider (−)-epicatechine, for which the “EC50 (amount of antioxidant required to reduce the initial concentration of DPPH• to half)” value is 0.19 micromoles antioxidant/micromoles initial DPPH•.
The same measure for `NCCSC1c2c(O)cc(O)cc2O[C@H](c2ccc(O)c(O)c2)[C@H]1OC(=O)c1cc(O)c(O)c(O)c1` (stereo partly shown) [III, 4ξ-(2-aminoethylthio)epicatechinegalate]: 0.11 micromoles antioxidant/micromoles initial DPPH•; for `NCCSC1c2c(O)cc(O)cc2O[C@H](c2ccc(O)c(O)c2)[C@H]1O` (stereo partly shown) [I, 4ξ-(2-aminoethylthio)epicatechine]: 0.11 micromoles antioxidant/micromoles initial DPPH•; for `Cc1c(C)c2c(c(C)c1O)CCC(C)(C(=O)O)O2` (stereo not shown) [Trolox]: 0.26 micromoles antioxidant/micromoles initial DPPH•.
